From US20030166687A1, “ALPHA-HYDROXY,-AMINO AND -FLUORO DERIVATIVES OF BETA-SULPHONYL HYDROXAMIC ACIDS AS MATRIX METALLOPROTEINASES INHIBITORS” (priority 2000, published 2003)

Target: gelatinase
Test: MMP particle concentration fluorescence assay, gelatinase
Assay type: biochemical
Conditions: in vitro; 15 min preincubation, 1-3 hours with substrate at room temperature, pH 7.5
Method: Inhibitory activity is evaluated in one or more of the MMP enzymes (stromelysin, gelatinase, and collagenase) in vitro using particle concentration fluorescence assay. An inhibitor binds to MMP enzymes which prevents the degradation of a substrate by stromelysin, gelatinase, or collagenase. The substrate has attached to it a fluorescein and a biotin moiety. The intact substrate then binds to an avidin-coated particle via the biotin moiety. Once the particle is washed and dried, a fluorescent signal is generated since the fluorescent group is attached to the particle. Without an inhibitor present, the substrate is degraded by MMP enzymes and the fluorescein group is removed, therefore, no fluorescent signal can be detected. Testing compounds are dissolved in DMSO to the desired concentration, then the solutions are diluted to 1:5 with MMP buffer (50 mM Tris-HCl, pH 7.5; 150 mM NaCl; 0.02% NaN3). Serial two-fold dilutions of each compound are prepared. A concentrated, activated enzyme solution is transferred into each plate of the testing compounds, and the mixture is incubated at room temperature for 15 minutes. Thawed MMP substrate is then added into all plates, and the plates are incubated in the dark for 1-3 hours at room temperature. At this point, the substrate mixture is mixed with 0.1% avidin-coated polystyrene particles. After 15 minutes, the fluorescence values are measured following filtration and washing of the beads. Ki values are then calculated.

SMILES | Ki
COc1ccc(S(=O)(=O)CC(O)(CS(=O)(=O)c2ccc(-c3ccccc3)cc2)C(=O)NO)cc1 (racemic) [Example 1, N-hydroxy-2-hydroxy-2-[(4-methoxybenzenesulfonyl)methyl]-3-(4-phenylbenzenesulfonyl)-propionamide] | 1.9 nM
COc1ccc(S(=O)(=O)CC(O)(CS(=O)(=O)c2ccc(-c3ccccc3)cc2)C(=O)NO)cc1 (single isomer, unassigned) [1, Enantiomer A] | 8.5 nM
COc1ccc(S(=O)(=O)CC(O)(CS(=O)(=O)c2ccc(-c3ccccc3)cc2)C(=O)NO)cc1 (single isomer, unassigned) [1, Enantiomer B] | 0.34 nM
COc1ccc(S(=O)(=O)CC(O)(CS(=O)(=O)c2ccc(F)cc2)C(=O)NO)cc1 (stereo not drawn) [Example 2, N-hydroxy-2-hydroxy-2-[(4-methoxybenzenesulfonyl)methyl]-3-(4-fluorobenzenesulfonyl)-propionamide] | 31 nM
CCCCc1ccc(S(=O)(=O)CC(O)(CS(=O)(=O)c2ccc(OC)cc2)C(=O)NO)cc1 (stereo not drawn) [Example 3, N-hydroxy-2-hydroxy-2-[(4-methoxybenzenesulfonyl)methyl]-3-(4-n-butylbenzenesulfonyl)-propionamide] | 13 nM
COc1ccc(S(=O)(=O)CC(O)(CS(=O)(=O)c2ccc(OC)cc2)C(=O)NO)cc1 [Example 4, N-hydroxy-2-hydroxy-2-[(4-methoxybenzenesulfonyl)methyl]-3-(4-methoxybenzenesulfonyl)-propionamide] | 7.5 nM
COc1ccc(S(=O)(=O)CC(O)(CNC(=O)c2ccccc2)C(=O)NO)cc1 (stereo not drawn) [Example 5, N-hydroxy-2-hydroxy-2-[(4-methoxybenzenesulfonyl)methyl]-3-(N-benzenecarbonylamino)-propionamide] | 23 nM
COc1ccc(S(=O)(=O)CC(O)(CNC(=O)C2CCCC2)C(=O)NO)cc1 (stereo not drawn) [Example 6, N-hydroxy-2-hydroxy-2-[(4-methoxybenzenesulfonyl)methyl]-3-[N-(cyclopentylcarbonyl)amino]-propionamide] | 70 nM
COc1ccc(C(=O)NCC(O)(CS(=O)(=O)c2ccc(OC)cc2)C(=O)NO)cc1 (stereo not drawn) [Example 7, N-hydroxy-2-hydroxy-2-[(4-methoxybenzenesulfonyl)methyl]-3-(N-(4-methoxybenzenecarbonyl)amino)-propionamide] | 17 nM
